In US20120115896A1, “ISOGENIC HUMAN CELL LINES COMPRISING MUTATED CANCER ALLELES AND PROCESS USING THE CELL LINES” (priority 2008, published 2012):
Where two headings read alike, the source gives them in different places.

How the values were obtained:
[1] = system: hTERT-HME1 cells carrying EGFR (delE746-A750) KI
[2] = system: hTERT-HME1 cells carrying KRAS (G13D) KI
[3] = system: hTERT-HME1 cells carrying BRAF (V600E) KI
[4] = system: hTERT-HME1 cells carrying PIK3CA (E545K and H1047R) KI
[5] = system: hTERT-HME1 DKI cells carrying PIK3CA (H1047R) and EGFR (delE746-A750)
[6] = system: DLD-1 colorectal cancer cells and derivative clones (DKO-1, DKO-3, DKO-4, PIK3CA WT/mutant); test: Viability (ATP assay) of DLD-1 cells and isogenic KRAS / PIK3CA derivative clones; conditions: DLD-1, FIG. 8B
Method: (§1) Results are expressed as percent of viability compared to cells treated with DMSO only ('control') and represent mean±SD of at least three independent observations.
(§2) After serial dilutions, 100 μl of drugs in serum free medium were added to cells with a multichannel pipette. Vehicle and medium-only containing wells were added as controls. Plates were incubated at 37° C. in 5% CO2 for 96 h, after which cell viability was assessed by ATP content using the CellTiter-Glo® Luminescent Assay (Promega Madison, Wis.).

[7] = system: HCT 116 colorectal cancer cells and derivative clones (HKh-2, HKe-3, HK2-6, PIK3CA WT/mutant); test: Viability (ATP assay) of HCT 116 cells and isogenic KRAS / PIK3CA derivative clones; conditions: HCT 116, FIG. 8A
Method: as §1, §2

Question: Which “ΔKI EGFR” value ([1]; Log(M) −3.05) does the source give for `O=C1C[C@@H](c2ccc(O)cc2)Oc2cc(O)cc(O)c21` [Naringenin] here?
Answer: 0

Question: And the “ΔKI EGFR” value ([1]; Log(M) −3.52)?
Answer: 0

Question: And the “ΔKI EGFR” value ([1]; Log(M) −4.00)?
Answer: 0

Question: What about the “ΔKI KRAS” value ([2]; Log(M) −3.05) of the same compound?
Answer: 0

Question: And the “ΔKI KRAS” value ([2]; Log(M) −3.52)?
Answer: 0

Question: And the “ΔKI KRAS” value ([2]; Log(M) −4.00)?
Answer: 0

Question: And the “ΔKI BRAF” value ([3]; Log(M) −3.05)?
Answer: −0.08

Question: What about the “ΔKI BRAF” value ([3]; Log(M) −3.52) of the same compound?
Answer: 0

Question: What about the “ΔKI BRAF” value ([3]; Log(M) −4.00) of the same compound?
Answer: −1.5

Question: What about the “ΔKI PIK3CA” value ([4]; Log(M) −3.05) of the same compound?
Answer: 0

Question: What about the “ΔKI PIK3CA” value ([4]; Log(M) −3.52) of the same compound?
Answer: 0

Question: And the “ΔKI PIK3CA” value ([4]; Log(M) −4.00)?
Answer: 0

Question: What about the “ΔKI PIK3CA + EGFR” value ([5]; Log(M) −3.05) of the same compound?
Answer: 0

Question: What about the “ΔKI PIK3CA + EGFR” value ([5]; Log(M) −3.52) of the same compound?
Answer: 0

Question: What about the “ΔKI PIK3CA + EGFR” value ([5]; Log(M) −4.00) of the same compound?
Answer: 0

Question: Which “ΔKI EGFR” value ([1]; Log(M) −4.40) does the source give for `O=c1cc(-c2ccc(O)cc2)oc2cc(O)cc(O)c12` [Apigenin] here?
Answer: 0

Question: What about the “ΔKI EGFR” value ([1]; Log(M) −4.70) of the same compound?
Answer: 0

Question: What about the “ΔKI EGFR” value ([1]; Log(M) −5.00) of the same compound?
Answer: 0

Question: What about the “ΔKI KRAS” value ([2]; Log(M) −4.40) of the same compound?
Answer: 0

Question: And the “ΔKI KRAS” value ([2]; Log(M) −4.70)?
Answer: 0

Question: What about the “ΔKI KRAS” value ([2]; Log(M) −5.00) of the same compound?
Answer: 0

Question: What about the “ΔKI BRAF” value ([3]; Log(M) −4.40) of the same compound?
Answer: −3.18

Question: And the “ΔKI BRAF” value ([3]; Log(M) −4.70)?
Answer: −2.32

Question: What about the “ΔKI BRAF” value ([3]; Log(M) −5.00) of the same compound?
Answer: 0

Question: And the “ΔKI PIK3CA” value ([4]; Log(M) −4.40)?
Answer: 0

Question: And the “ΔKI PIK3CA” value ([4]; Log(M) −4.70)?
Answer: 0

Question: And the “ΔKI PIK3CA” value ([4]; Log(M) −5.00)?
Answer: 0

Question: And the “ΔKI PIK3CA + EGFR” value ([5]; Log(M) −4.40)?
Answer: 0

Question: And the “ΔKI PIK3CA + EGFR” value ([5]; Log(M) −4.70)?
Answer: 0

Question: And the “ΔKI PIK3CA + EGFR” value ([5]; Log(M) −5.00)?
Answer: 0

Question: Which results are given for `O=C(NOCC1CC1)c1ccc(F)c(F)c1Nc1ccc(I)cc1Cl` [CI-1040, CI-1040 (PD 184352)]?
Answer: effect on PIK3CA WT/− cells versus isogenic PIK3CA mutant cells [6]: affects to a greater extent; effect on PIK3CA mutant cells in combination with everolimus ([6]; with everolimus 10^−7 M): effects comparable to those achievable by the MEK inhibitor alone; effect on PIK3CA WT/− cells versus isogenic PIK3CA mutant cells [7]: affects to a greater extent; effect on PIK3CA mutant cells in combination with everolimus ([7]; with everolimus 10^−7 M): effects comparable to those achievable by the MEK inhibitor alone

Question: With `COc1cc(O)c2c(c1)O[C@H](c1ccc(O)cc1)CC2=O` [Sakuranetin] as the compound, how does the “ΔKI EGFR” value ([1]; Log(M) −3.05) read?
Answer: 0.02

Question: And the “ΔKI EGFR” value ([1]; Log(M) −3.52)?
Answer: 0.78

Question: And the “ΔKI KRAS” value ([2]; Log(M) −3.05)?
Answer: 0

Question: And the “ΔKI KRAS” value ([2]; Log(M) −3.52)?
Answer: 0

Question: And the “ΔKI BRAF” value ([3]; Log(M) −3.05)?
Answer: 0.02

Question: And the “ΔKI BRAF” value ([3]; Log(M) −3.52)?
Answer: 2.24

Question: And the “ΔKI PIK3CA” value ([4]; Log(M) −3.05)?
Answer: 0

Question: What about the “ΔKI PIK3CA” value ([4]; Log(M) −3.52) of the same compound?
Answer: 2.4

Question: And the “ΔKI PIK3CA + EGFR” value ([5]; Log(M) −3.05)?
Answer: 0.04

Question: What about the “ΔKI PIK3CA + EGFR” value ([5]; Log(M) −3.52) of the same compound?
Answer: 1.46
